The record followed here is US6995187B1, “Peripheral cannabinoid receptor (CB2) selective ligands” (University of Connecticut, priority 1999, dated 2006).

The target of one experiment is T1, CB2 receptor (Mus musculus, UniProt P47936).
T1 construct: membranes were prepared from frozen mouse spleen; from tissue; host or cells: mouse spleen
The experiment can be described thus: CB2 receptor binding assay ([3H] CP-55,940 displacement, mouse spleen membranes). To be noted: 0.8 nM [3H] CP-55,940, read-out: CB2 affinity. The method, then:
(§1) As used herein, “binding affinity” is represented by the IC50 value which is the concentration of an analog required to occupy the 50% of the total number (Bmax) of the receptors. The lower the IC50 value, the higher the binding affinity. […] The binding affinities (Ki) are expressed in nanomoles (nM).
(§2) Membranes, previously frozen at −80° C., were thawed on ice. To the stirred suspension was added three volumes of TME (25 mM Tris-HCl buffer, 5 mM MgCl2 and 1 mM EDTA) at a pH 7.4. The suspension was incubated at 4° C. for 30 min. At the end of the incubation, the membranes were pelleted and washed three times with TME.
The treated membranes were subsequently used in the binding assay described below. Approximately 30 μg of membranes were incubated in silanized 96-well microtiter plate with TME containing 0.1% essentially fatty acid-free bovine serum albumin (BSA), 0.8 nM [^3H] […] Radioactivity was detected using MicroScint 20 scintillation cocktail added directly to the dried filterplates, and the filterplates were counted using a Packard Instruments Top-Count. Nonspecific binding was assessed using 100 nM CP-55,940. […] CP-55,940, determined using buffer and 100 nM CP-55,940. The normalized data was analyzed using a 4-parameter nonlinear logistic equation to yield IC50 values. […]

The target in a further experiment is T2, CB1 receptor (Rattus norvegicus, UniProt P20272).
T2 construct: membranes were prepared from rat forebrain membranes; from tissue; host or cells: rat forebrain
T2 sequence (P20272 whole entry): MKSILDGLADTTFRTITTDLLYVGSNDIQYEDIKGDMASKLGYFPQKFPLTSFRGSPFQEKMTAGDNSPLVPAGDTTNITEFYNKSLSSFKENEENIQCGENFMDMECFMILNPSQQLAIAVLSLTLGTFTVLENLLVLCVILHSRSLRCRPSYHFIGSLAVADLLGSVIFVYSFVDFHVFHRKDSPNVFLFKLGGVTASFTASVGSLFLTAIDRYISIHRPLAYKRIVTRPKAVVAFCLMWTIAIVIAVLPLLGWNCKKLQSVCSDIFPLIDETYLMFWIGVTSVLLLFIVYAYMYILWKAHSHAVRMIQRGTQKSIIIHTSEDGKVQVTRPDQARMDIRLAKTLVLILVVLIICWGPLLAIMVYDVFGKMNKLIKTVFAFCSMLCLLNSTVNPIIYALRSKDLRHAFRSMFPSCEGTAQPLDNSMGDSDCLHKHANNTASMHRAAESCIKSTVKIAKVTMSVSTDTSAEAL
Nature of the experiment: CB1 receptor binding assay ([3H] CP-55,940 displacement, rat forebrain membranes). The settings on record: CB2 (mouse spleen) versus CB1 (rat forebrain) binding affinity. As to the method:
as §1
The above articles are incorporated by reference herein.
as §2
The treated membranes were subsequently used in the binding assay described below. Approximately 30 μg of membranes were incubated in silanized 96-well microtiter plate with TME containing 0.1% essentially fatty acid-free bovine serum albumin (BSA), 0.8 nM [^3H] […] Radioactivity was detected using MicroScint 20 scintillation cocktail added directly to the dried filterplates, and the filterplates were counted using a Packard Instruments Top-Count. Nonspecific binding was assessed using 100 nM CP-55,940. […] CP-55,940, determined using buffer and 100 nM CP-55,940. The normalized data was analyzed using a 4-parameter nonlinear logistic equation to yield IC50 values.

Experiment [1] deals with paw-withdrawal latency to radiant heat in male Sprague-Dawley rats. The experiment can be described thus: Cannabinoid mediated antinociception: paw-withdrawal latency to a thermal nociceptive stimulus (Hargreaves method). The class given is in vivo. The settings on record: rat, subcutaneous injection in plantar surface of hindpaw, in DMSO, 50 μl; FIGS. 1–13. The method, then: Cannabinoid Mediated Antinociception.
Method. Male Sprague-Dawley rats (Harlan; Indianapolis, Ind.) 200–300 grams at time of testing, were maintained in a climate-controlled room on a 12-h light/dark cycle (lights on at 06:00 h) and food and water were available ad libitum. All of the testing was performed in accordance with the policies and recommendations of the International Association for the Study of Pain (IASP) and the National Institutes of Health (NIH) guidelines for the handling and use of laboratory animals and received approval from the Institutional Animal Care and Use Committee (IACUC) of the University of Arizona.
All drugs were dissolved in dimethyl sulfoxide (DMSO) and were injected subcutaneously in the plantar surface of the hindpaw in a total volume of 50 μl. DMSO given in hindpaw at this volume had no effect. The method of Hargreaves, K.; Dubner, R.; Brown, F.; Flores, C.; and Joris, J., A New Sensitive Method for Measuring Thermal Nociception in Cutaneous Hyperalgesia. […] Paw-withdrawal latency was determined by a photocell that halted both lamp and timer when the paw was withdrawn. The latency to withdrawal of the paw from the radiant heat source was determined both before and after drug or vehicle administration. […]

T1 sequence (P47936 whole entry): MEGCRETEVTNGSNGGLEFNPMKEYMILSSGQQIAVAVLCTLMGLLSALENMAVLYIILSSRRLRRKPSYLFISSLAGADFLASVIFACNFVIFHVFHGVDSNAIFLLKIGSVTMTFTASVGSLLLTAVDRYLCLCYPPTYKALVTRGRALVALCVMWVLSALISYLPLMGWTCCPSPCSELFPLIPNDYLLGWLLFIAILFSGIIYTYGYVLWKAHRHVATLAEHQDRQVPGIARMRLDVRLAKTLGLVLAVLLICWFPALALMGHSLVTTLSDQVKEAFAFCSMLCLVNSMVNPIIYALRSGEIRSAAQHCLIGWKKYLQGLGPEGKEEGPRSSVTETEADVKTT

In the case of `CCCCCCC(C)(C)c1cc(O)c2c(c1)oc(=O)c1ccc(OC)cc12` [AM1710, 3-(1,1-Dimethylheptyl)-1-hydroxy-9-methoxy-6H-dibenzo[b,d]pyran-6-one], the Ki on CB2 receptor amounted to 490 pM. Moreover, the “CB2 selectivity over CB1” value at CB1 receptor is on record as approximately 750 fold. Consider `CCCCCCC(C)(C)c1cc(O)c2c(c1)oc(=O)c1ccc(O)cc12` [AM1714, 3-(1,1-Dimethylheptyl)-1,9-dihydroxy-6H-dibenzo[b,d]pyran-6-one], for which, in experiment [1], the “physiological effects in test animals including analgesia” value is “produced notable physiological effects in test animals including analgesia”.
